What is called inhibition is the drop in the measured response relative to a control, in per cent.

Read-outs that look alike come from different tables or passages of the source.

The target in one test is T1, human OX1 receptor (Homo sapiens, UniProt O43613).
T1 construct: expressed in transfected cells; host or cells: CHO cells
T1 sequence (O43613 1-425): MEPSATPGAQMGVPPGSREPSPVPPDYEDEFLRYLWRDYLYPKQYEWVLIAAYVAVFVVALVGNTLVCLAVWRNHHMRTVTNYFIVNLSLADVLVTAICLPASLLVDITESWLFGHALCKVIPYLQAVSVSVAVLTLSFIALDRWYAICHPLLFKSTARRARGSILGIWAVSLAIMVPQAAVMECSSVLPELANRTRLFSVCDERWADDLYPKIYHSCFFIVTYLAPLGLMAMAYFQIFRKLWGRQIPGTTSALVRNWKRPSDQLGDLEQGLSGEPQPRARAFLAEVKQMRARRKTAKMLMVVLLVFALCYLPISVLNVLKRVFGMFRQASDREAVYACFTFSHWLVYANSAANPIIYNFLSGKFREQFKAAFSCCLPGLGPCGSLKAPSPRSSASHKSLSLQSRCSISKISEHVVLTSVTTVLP
In words: Measurement of orexin receptor antagonistic activity (calcium fluorescence, FLIPRtetra). The format is cell-based. Conditions: for inhibition at 10 µM: CHO, read-out: Human Orexin1 receptor inhibition (at 10 μM). As for the experimental part: (§1) Measurement of Orexin Receptor Antagonistic Activity
(§2) CHO cells forcibly expressing human OX1 receptor or human OX2 receptor were seeded in each well of 384 well black transparent bottom plate (BD Falcon) at 7,500 cells/well, and cultured for one day in a 5% CO2 incubator at 37° C. […] The plate was stood for 30 min in a 5% CO2 incubator at 37° C., and further stood at room temperature for 30 min. A test compound prepared by diluting with assay buffer B (HBSS, 20 mM HEPES, 0.1% BSA) was added at 10 μL/well, and then OX-A (OX1 receptor, final concentration; 1 nM) or OX-A (OX2 receptor, final concentration; 0.3 nM) was added at 10 μL/well, and the fluorescence value was measured by FLIPRtetra (Molecular Devices) every one sec for 2 min.

In a further test the target is T2, human OX2 receptor (Homo sapiens, UniProt O43614).
T2 construct: expressed in transfected cells; host or cells: CHO cells
T2 sequence (O43614 1-444): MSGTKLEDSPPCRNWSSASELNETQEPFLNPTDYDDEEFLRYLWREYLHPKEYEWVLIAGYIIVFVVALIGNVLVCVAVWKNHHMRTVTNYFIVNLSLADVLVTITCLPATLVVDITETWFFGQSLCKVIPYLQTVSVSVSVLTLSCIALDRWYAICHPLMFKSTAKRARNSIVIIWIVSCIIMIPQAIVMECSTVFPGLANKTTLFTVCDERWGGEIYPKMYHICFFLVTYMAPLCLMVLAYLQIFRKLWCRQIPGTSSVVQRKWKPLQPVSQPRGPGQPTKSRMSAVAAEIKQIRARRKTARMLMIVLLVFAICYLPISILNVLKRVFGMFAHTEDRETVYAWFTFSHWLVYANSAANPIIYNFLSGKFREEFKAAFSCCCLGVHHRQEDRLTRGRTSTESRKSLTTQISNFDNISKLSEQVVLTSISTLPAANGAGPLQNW
Described as above. The format is cell-based. The note with it: for inhibition at 10 µM: CHO, read-out: Human Orexin2 receptor inhibition (at 10 μM). The procedure:
as §1, §2

Setting [1] is: 10 μM test compound, CHO cells expressing human OX1 receptor, OX-A 1 nM.
Setting [2] is: 10 μM test compound, CHO cells expressing human OX2 receptor, OX-A 0.3 nM.

As for `Cc1cc(N2C[C@H](C)N(C(=O)c3ccccc3-n3nccn3)[C@H](C)CO2)nc(C)n1` [Example 172, ((4S,6R)-2-(2,6-dimethylpyrimidin-4-yl)-4,6-dimethyl-1,2,5-oxadiazepan-5-yl)(2-(2H-1,2,3-triazol-2-yl)phenyl)methanone], the inhibition at 10 µM at human OX1 receptor (setting [1]) was 103%; at human OX2 receptor (setting [2]), 100%.
As to `Cc1cc(N2CCN(C(=O)c3c(F)cccc3-n3nccn3)C[C@H](C)O2)nc(C)n1` [Example 210, ((7S)-2-(2,6-dimethylpyrimidin-4-yl)-7-methyl-1,2,5-oxadiazepan-5-yl)(2-fluoro-6-(2H-1,2,3-triazol-2-yl)phenyl)methanone], the results for the inhibition at 10 µM at human OX1 receptor (setting [1]) and on human OX2 receptor (setting [2]) were 51% and 97%, respectively.
For `Cc1ccc(-n2nccn2)c(C(=O)N2CCON(c3ncc(C4CC4)cn3)CC2)c1` [Example 10, (2-(5-cyclopropylpyrimidin-2-yl)-1,2,5-oxadiazepan-5-yl)(5-methyl-2-(2H-1,2,3-triazol-2-yl)phenyl)methanone] the same measures were 93% and 94%.
Consider `Cc1cc(N2CCN(C(=O)c3cc(F)c(F)cc3-c3ncccn3)CCO2)nc(C)n1` [Example 228, (4,5-difluoro-2-(pyrimidin-2-yl)phenyl)(2-(2,6-dimethylpyrimidin-4-yl)-1,2,5-oxadiazepan-5-yl)methanone], for which the inhibition at 10 µM at human OX1 receptor (setting [1]) was determined as 36%; on human OX2 receptor (setting [2]) it was 99%.
With `Cc1ccc(-n2nccn2)c(C(=O)N2CCN(c3cccc(C)n3)OC[C@H]2C)c1` [Example 124, ((6R)-6-methyl-2-(6-methylpyridin-2-yl)-1,2,5-oxadiazepan-5-yl) (5-methyl-2-(2H-1,2,3-triazol-2-yl)phenyl)methanone], the inhibition at 10 µM on human OX1 receptor (setting [1]) came out at 85%; on human OX2 receptor (setting [2]), 101%.
`Cc1cc(N2C[C@H](C)N(C(=O)c3ccccc3-n3nccn3)CC(C)O2)nc(C)n1` (stereo partly drawn) [Example 191, ((4S)-2-(2,6-dimethylpyrimidin-4-yl)-4,7-dimethyl-1,2,5-oxadiazepan-5-yl)(2-(2H-1,2,3-triazol-2-yl)phenyl)methanone]: the “Human Orexin1 receptor inhibition (at 10 μM)” value at human OX1 receptor (setting [1]) came out at 106%. Also, the “Human Orexin2 receptor inhibition (at 10 μM)” value at human OX2 receptor (setting [2]) is given as 109%.
On to `Cc1cc(N2CCN(C(=O)c3cc(Cl)ccc3C3CCC3)CCO2)nc(C)n1` [Example 22, (5-chloro-2-cyclobutylphenyl) (2-(2,6-dimethylpyrimidin-4-yl)-1,2,5-oxadiazepan-5-yl)methanone], for which the inhibition at 10 µM stood at 54% at human OX1 receptor (setting [1]) and 99% on human OX2 receptor (setting [2]).
For `Cc1ccc(-n2nccn2)c(C(=O)N2CCN(c3ncc4sccc4n3)OC[C@H]2C)c1` [Example 116, ((6R)-6-methyl-2-(thieno[3,2-d]pyrimidin-2-yl)-1,2,5-oxadiazepan-5-yl) (5-methyl-2-(2H-1,2,3-triazol-2-yl)phenyl)methanone] the same measures were 101% and 100%.
For the compound `Cc1cc(C)nc(N2CCN(C(=O)c3cccc4nc(C)oc34)CCO2)n1` [Example 70, (2-(4,6-dimethylpyrimidin-2-yl)-1,2,5-oxadiazepan-5-yl) (2-methyl-1,3-benzoxazol-7-yl)methanone], the inhibition at 10 µM at human OX1 receptor was -6%; at human OX2 receptor it was 17%.
Consider `Cc1cccc(N2CCN(C(=O)c3ccccc3-c3nccs3)C[C@H](C)O2)n1` [Example 89, ((7S)-7-methyl-2-(6-methylpyridin-2-yl)-1,2,5-oxadiazepan-5-yl) (2-(1,3-thiazol-2-yl)phenyl)methanone], for which the inhibition at 10 µM at human OX1 receptor (setting [1]) is 101%; on human OX2 receptor (setting [2]) it was 97%.
For `Cc1ccc(-n2nccn2)c(C(=O)N2[C@H](C)CON(c3cc(C(F)(F)F)nc(C)n3)C[C@@H]2C)c1` [Example 178, ((4S,6R)-4,6-dimethyl-2-(2-methyl-6-(trifluoromethyl)pyrimidin-4-yl)-1,2,5-oxadiazepan-5-yl) (5-methyl-2-(2H-1,2,3-triazol-2-yl)phenyl)methanone] the same measures were 105% and 99%.
For `Cc1cc(N2CCN(C(=O)c3cc(C#N)ccc3-n3nccn3)CCO2)nc(C)n1` [Example 44, 3-((2-(2,6-dimethylpyrimidin-4-yl)-1,2,5-oxadiazepan-5-yl)carbonyl)-4-(2H-1,2,3-triazol-2-yl)benzonitrile] the same measures were -16% and 103%.
For `Cc1nc(C(F)F)cc(N2C[C@H](C)N(C(=O)c3cc(Cl)ccc3-n3nccn3)[C@H](C)CO2)n1` [Example 182, (5-chloro-2-(2H-1,2,3-triazol-2-yl)phenyl)((4S,6R)-2-(6-(difluoromethyl)-2-methylpyrimidin-4-yl)-4,6-dimethyl-1,2,5-oxadiazepan-5-yl)methanone] the same measures were 100% and 98%.
Take `COc1cccc(F)c1C(=O)N1CCON(c2nc(C)cc(C)n2)CC1` [Example 48, (2-(4,6-dimethylpyrimidin-2-yl)-1,2,5-oxadiazepan-5-yl) (2-fluoro-6-methoxyphenyl) methanone]: the inhibition at 10 µM was determined as 10% on human OX1 receptor (setting [1]) and 73% on human OX2 receptor (setting [2]).
For `Cc1cc(N2CCN(C(=O)c3ccccc3-c3ncc(F)cn3)CCO2)nc(C)n1` [Example 222, (2-(2,6-dimethylpyrimidin-4-yl)-1,2,5-oxadiazepan-5-yl)(2-(5-fluoropyrimidin-2-yl)phenyl)methanone] the same measures were 32% and 99%.
`COc1cc(N2CCN(C(=O)c3ccccc3-n3nccn3)[C@H](C)CO2)nc(OC)n1` [Example 153, ((6R)-2-(2,6-dimethoxypyrimidin-4-yl)-6-methyl-1,2,5-oxadiazepan-5-yl)(2-(2H-1,2,3-triazol-2-yl)phenyl)methanone]: the inhibition at 10 µM on human OX1 receptor (setting [1]) worked out at 94%; on human OX2 receptor (setting [2]) it was 99%.
For `Cc1ccc(-n2nccn2)c(C(=O)N2CCN(c3cc(C#N)ccn3)OC[C@H]2C)c1` [Example 136, 2-((6R)-6-methyl-5-(5-methyl-2-(2H-1,2,3-triazol-2-yl)benzoyl)-1,2,5-oxadiazepan-2-yl)isonicotinonitrile] the same measures were 36% and 95%.
For `Cc1cc(C)nc(N2CCN(C(=O)c3cccc(-c4ccccc4)c3)CCO2)n1` [Example 78, biphenyl-3-yl (2-(4,6-dimethylpyrimidin-2-yl)-1,2,5-oxadiazepan-5-yl)methanone] the same measures were 27% and 52%.
For `Cc1cc(N2CCN(C(=O)c3ccccc3-c3ncc(F)s3)CCO2)nc(C)n1` [Example 17, (2-(2,6-dimethylpyrimidin-4-yl)-1,2,5-oxadiazepan-5-yl) (2-(5-fluoro-1,3-thiazol-2-yl)phenyl)methanone] the same measures were 41% and 102%.
Consider `Cc1cc(N2CCN(C(=O)c3cc(F)ccc3-n3cccn3)CCO2)nc(C)n1` [Example 28, (2-(2,6-dimethyl-pyrimidin-4-yl)-1,2,5-oxadiazepan-5-yl) (5-fluoro-2-(1H-pyrazol-1-yl)phenyl) methanone], for which the inhibition at 10 µM at human OX1 receptor (setting [1]) was determined as 23%; on human OX2 receptor (setting [2]), 74%.
On to `Cc1nccc(N2CCN(C(=O)c3ccccc3-c3ncccn3)C[C@H](C)O2)n1` [Example 206, ((7S)-7-methyl-2-(2-methylpyrimidin-4-yl)-1,2,5-oxadiazepan-5-yl)(2-(pyrimidin-2-yl)phenyl)methanone], for which the inhibition at 10 µM was 28% on human OX1 receptor (setting [1]) and 100% on human OX2 receptor (setting [2]).
For `Cc1ccc(-n2nccn2)c(C(=O)N2CCON(c3nc(C)cc(-c4ccc(F)cc4)n3)CC2)c1` [Example 12, (2-(4-(4-fluorophenyl)-6-methylpyrimidin-2-yl)-1,2,5-oxadiazepan-5-yl)(5-methyl-2-(2H-1,2,3-triazol-2-yl)phenyl)methanone] the same measures were 101% and 93%.
